Experimental data taken from ChEMBL document CHEMBL3526086, “Identification of the oxidative and conjugative enzymes involved in the biotransformation of brivanib” (Drug Metab Dispos, 2012).

Legend:
Liver microsome [1] = assay: Drug level in human liver microsomes assessed as compound formation treated with 2 uM [14C]brivanib alaninate for 60 mins by LC/MS analysis in presence of NADPH; assay type: ADME; conditions: 1 h
Liver cytosol [2] = assay: Drug level in human liver cytosol treated with 2 uM [14C](R)-1-(4-(4-fluoro-2-(hydroxymethyl)-1H-indol-5-yloxy)-5-methylpyrrolo[1,2-f][1,2,4]triazin-6-yloxy)propan-2-ol for 60 mins by LC/MS analysis in presence of PAPS; assay type: ADME, tissue-based
Liver cytosol [3] = assay: Drug level in human liver cytosol treated with 2 uM [14C](R)-4-fluoro-5-(6-(2-hydroxypropoxy)-5-methylpyrrolo[1,2-f][1,2,4]triazin-4-yloxy)-1H-indole-2-carboxylic acid for 60 mins by LC/MS analysis in presence of PAPS; assay type: ADME, tissue-based
Liver microsome [4] = assay: Drug level in human liver microsomes treated with 2 uM [14C](R)-1-(4-(4-fluoro-2-methyl-1H-indol-5-yloxy)-5-methylpyrrolo[1,2-f][1,2,4]triazin-6-yloxy)propane-2-sulfonic acid for 60 mins by LC/MS analysis in presence of NADPH; assay type: ADME
Liver cytosol [5] = assay: Drug level in human liver cytosol treated with 2 uM [14C](R)-1-(4-(4-fluoro-2-(hydroxymethyl)-1H-indol-5-yloxy)-5-methylpyrrolo[1,2-f][1,2,4]triazin-6-yloxy)propan-2-ol for 60 mins by LC/MS analysis in presence of NADPH; assay type: ADME, tissue-based
Liver cytosol [6] = assay: Drug level in human liver cytosol treated with 2 uM [14C](R)-1-(4-(4-fluoro-2-(hydroxymethyl)-1H-indol-5-yloxy)-5-methylpyrrolo[1,2-f][1,2,4]triazin-6-yloxy)propan-2-ol for 60 mins by LC/MS analysis; assay type: ADME, tissue-based

Drug metabolism (Liver microsome [1])	Drug metabolism (Liver cytosol [2])	Drug metabolism (Liver cytosol [3])	Drug metabolism (Liver microsome [4])	Drug metabolism (Liver cytosol [5])	Drug metabolism (Liver cytosol [6])	SMILES
metabolite_detected	–	–	–	–	–	CC(=O)COc1cn2ncnc(Oc3ccc4[nH]c(C)cc4c3F)c2c1C
–	metabolite_detected	metabolite_detected	metabolite_detected	–	–	Cc1c(OC[C@@H](C)OS(=O)(=O)O)cn2ncnc(Oc3ccc4[nH]c(C(=O)O)cc4c3F)c12
–	metabolite_detected	–	metabolite_detected	–	–	Cc1c(OC[C@@H](C)OS(=O)(=O)O)cn2ncnc(Oc3ccc4[nH]c(CO)cc4c3F)c12
metabolite_detected	–	–	–	metabolite_detected	metabolite_detected	Cc1c(OC[C@@H](C)O)cn2ncnc(Oc3ccc4[nH]c(C(=O)O)cc4c3F)c12
